Data on one molecule can be found in patent publication US20230094545A1, “S1P RECEPTOR MODULATORS” (AKAAL PHARMA PTY LTD, priority 2020, published 2023).

In series [1] the test system is burn wound and scratch wounds. The series can be described thus: Topical formulation in wound patients (case reports). The series is classed as in vivo, human. The method, then:
A patient presented with a second degree burn wound on the inner surface of their middle finger of their left hand, suffering from swelling, blistering and pain at the site of injury. A topical gel formulation of compound of formula (I) was applied topically to the site of injury.
A patient presented with a scratch wounds on hands while cleaning gutters. These become inflamed and painful in 3 hours.

Series [2] can be described thus: Systemic exposure and lymphopenia in mice. The series is classed as in vivo.
The test system of series [3] is experimental autoimmune encephalomyelitis (EAE). The series can be described thus: EAE model, RT-PCR for IL-31, IL1β and IFNγ in spleen. The series is classed as in vivo. The settings on record: 3 mg/kg from 11th day, Day 27. Here is the method: The efficacy of the compound of formula (I) was assessed in an animal model of experimental autoimmune encephalomyelitis (EAE), which is a widely-accepted model of demyelinating diseases such as MS. The cDNA was prepared from spleen obtained from Vehicle treated (Control), EAE induced (no treatment) and EAE induced (a compound of formula (I) treated) animals (n=5 each group) at the recovery (Day 27 from 1st day of MBP immunization). The treatment with a compound of Formula I (3 mg/kg) was initiated on the 11th day from MBP immunization. cDNA was synthesized using Bio-Rad cDNA synthesis kit. RT-PCR was performed for IL-31, IL1β and IFNγ. Primers were obtained from Qiagen and the samples were analysed on Bio-Rad CFX96Real-Time System. […] Statistical Significance of the data is represented by p value. *denotes p≤0.05, **denotes p≤0.01.

The subject of series [4] is formalin induced nociception. The series can be described thus: Formalin induced nociception (pain). It is filed as in vivo, Sprague Dawley rats. The method, then: Forty male Sprague Dawley rats were assigned to different treatment and control groups containing 8 animals/group. The groups were treated with different doses of a compound of Formula I and received either 0.03, 0.3 and 3.0 mg/kg dose, administered orally 30 min before formalin injection. Tramadol hydrochloride (30 mg/kg) was administered orally 30 min before formalin injection as a positive control. Deionized water was used as a negative control (Vehicle) and administered orally 30 min before formalin injection. Individual rats were then gently restrained and formalin (5% in v/v in saline, 50 μl, s.c.) was injected into the plantar surface of the left hind paw using a 27G needle. Post-formalin nociceptive behaviour, paw flinching was recorded for 60 min, in bins of 5 min. The intra plantar injection of formalin (50 μl, 5% v/v) induced marked flinching of the ipsilateral rat paw with typical biphasic response in the vehicle/distilled water treated animals. […] Inhibition of nociceptive behaviour at 0.3 mg/kg (33%, p<0.05) and 3.0 mg/kg (45%, p<0.01) were statistically significant compared to vehicle control.

Series [5] deals with DSS-induced colitis. The experiment in a line: DSS-induced ulcerative colitis model. The series is classed as in vivo, Balb/C Mice. The method, then: The effect of a compound of formula (I) was assessed in an animal model of Ulcerative colitis. 24 Balb/C Mice were divided into […]; control and treatment (n=6). Acute colitis was induced in all groups by adding 2.5% w/v Dextran Sulphate Sodium (DSS) treatment in drinking water for 5-7 days. A compound of Formula I was administered at dose of 3 mg/kg body weight by oral route as a repeated dose for 3 or 6 days, consecutively. […] During day 6 these observations were reduced to 16.66% in control and 0.00% in a compound of Formula I group.
The mean colon lengths were 9.67 cm, 9.88 cm, 11.20 cm and 13.02 cm in day 3 control group, day 6 control group, day 3 a compound of Formula I treated group and day 6 a compound of Formula I treated group respectively. […] The severity of presence of haemorrhages with desquamated cells seen in lumen of colon of control animals was reduced in a compound of Formula (I) treated animals.

Series [6] is described as follows: Systemic exposure in human subjects after topical application. The settings on record: in vivo. From the text:
The medicaments according to the present disclosure may contain from about 0.05% to about 10% by weight, or from about 0.5% to about 10% by weight, preferably from about 1.0 to about 4.5% by weight or preferably from about 1.5 to about 4.5% by weight, of the S1P receptor modulator. […] The dose of the S1P receptor modulator used in the treatment of the aforementioned disorders will vary in the usual way with the seriousness of the disorders, the weight of the sufferer, and other similar factors. In preferred embodiments, the medicament is applied to 100 cm^2 of body surface area per 1 g of medicament, up to 1000 cm^2 of body surface area per 1 g of medicament. The medicament can be applied such that the standard daily therapeutic dosage of active compound is ≤3 g. The topical dose level and strength of dose formulation with the compound of formula (I) may be extended to higher levels without risk of bradycardia and lymphopenia. For example, dose levels of medicaments according to the methods of the present disclosure may include up to: • 1. 10 g daily dose of up to 30% ww strength formulation with 1 g up to 300 cm^2 surface area • 2. 10 g daily dose of up to 30% ww strength formulation with 1 g up to 1000 cm2 surface area • 3. 100 g daily dose of up to 3% ww strength formulation with 1 g up to 300 cm^2 surface area • 4. 100 g daily dose of up to 3% ww strength formulation with 1 g up to 1000 cm2 surface area • 5. 300 g daily dose of up to 1% ww strength formulation with 1 g up to 300 cm^2 surface area. • 6. 300 g daily dose of up to 1% ww strength formulation with 1 g up to 1000 cm^2 surface area
The body surface area of an adult is around 16,000 cm^2 to 18,000 cm^2 and the skin surface area varies from 10,000 cm^2 to 20,000 cm^2 (https://hypertextbook.com/facts/2001/IgorFridman.shtml, and references cited within). Human subjects received a topical application of 1 g of 3% by weight formulation per 150 cm^2 of body surface area (over the skin) twice daily for 21 days. The resulting systemic exposure was approximately 2.2 ng/ml.

Bounds are passed on as bounds.

As for `CCCOc1ccc(-c2nc(-c3ccc4oc(C(N)(CO)CO)cc4c3)no2)cc1Cl` [compound of formula (I)], the adverse side effects entry in series [1] (both cases) is “No adverse side effects”. Also, the “swelling and pain of scratch wounds” value in series [1] (ointment formulation, one patient) is “swelling and pain reduced dramatically”. Also, the “swelling and blistering of burn wound” value in series [1] (topical gel formulation, after 10 minutes, one patient) was “swelling and blistering had visibly reduced dramatically”. The “pain of burn wound” value in series [1] (topical gel formulation, one patient) is “significant pain relief”. In series [2] (0.3 mg/kg, 6 hours post dose), the measured lymphopenia was found to be 40%. This molecule also gave a systemic exposure in series [2] (dose of 0.3 mg/kg) of 6.36 ng/mL. Moreover, the “markers of inflammation (IL-31, IL1β, IFNγ, RT-PCR, spleen)” value in series [3] was “significantly reduced markers of inflammation”. In addition, the “inhibition of nociceptive behaviour” value in series [4] (0.3 mg/kg oral 30 min before formalin, p<0.05) worked out at 33%. Also, the “inhibition of nociceptive behaviour” value in series [4] (3.0 mg/kg oral 30 min before formalin, p<0.01) was determined as 45%. Further, the nociceptive behaviour entry in series [4] (0.03, 0.3 and 3 mg/kg oral 30 min before formalin) is on record as “inhibited nociceptive behaviour”. For the same molecule, the “DSS-induced colitis, overall” value in series [5] (3 mg/kg oral daily) is “improvement of DSS-induced colitis”. This molecule also had a mean colon length in series [5] (day 3, 3 mg/kg oral) of 11.20 cm. Moreover, in series [5] (day 6, 3 mg/kg oral), the “gross pathological observations (emaciated, anal area soiled with blood)” value amounted to 0.00% and the mean colon length is given as 13.02 cm. Also, in series [5] (histopathology day 6), the “increase in mucus secreting goblet cells” value is “moderate ( 4/6 animals) to minimal (⅙ animals) increase”; the “infiltration of MNC” value is “minimal in 2/6 animals and mild in ⅙ animals”. Moreover, in series [5] (histopathology day 6, compared to control), the thickness of mucosa result is given as “markedly reduced”. Moreover, in series [5] (histopathology of colon), the “incidence of increase in thickness of mucosa” value is “mild in 3/6 animals and minimal in 2/6 animals”; the “number of mucus secreting goblet cells” value is “increased moderately ( 4/6)”; the “severity of haemorrhages with desquamated cells in lumen of colon” value is recorded as “reduced”. For the same molecule, in series [6] (2 g daily of 3% ww formulation, 2 g daily topical 3% ww formulation for 3 weeks), the concentration at 3 weeks is about 2.5 ng/mL. The same molecule had a concentration at 21 days in series [6] (topical, 1 g of 3% by weight formulation per 150 cm^2, 1 g of 3% by weight formulation per 150 cm2 twice daily for 21 days) of about 2.2 ng/mL. Moreover, in series [6] (topical, 2 g of 3% or 6% by weight formulation (60 mg or 120 mg) over the joint area for one week), the concentration at 1 week was at most 2.5 ng/mL.
